From US6174907A, “Benzimidazole compounds containing 1,2,4-triazole ring, and compositions and methods of use containing the same” (Fuji Photo Film Co., Ltd., priority 1995, dated 2001) come the findings set out here.

Series [1] relates to mouse peritoneal macrophages. The series is described as follows: Cytotoxicity examined microscopically (morphological alteration of cells). It is filed as cell-based, mouse (female ICR). Conditions: 5 μM, observed microscopically. On the procedure: (§1) Activity of the compounds of the present invention for suppressing the foaming of macrophages, which triggers arterial sclerosis, was examined by an in vitro experiment using mouse peritoneal macrophages. 15-Week old female ICR mice (Nippon SLC) were subjected to bleeding by cutting off their cervicalis, and Hanks buffer (Nippon Seiyaku) was injected into their peritoneal cavities. After abdominal regions of the mice were massaged, the buffer was recovered immediately, and then the resulting buffer was centrifuged at 1,000 r.p.m. for five minutes to collect peritoneal macrophages. Then, the collected macrophages were suspended in GTI medium (Wako Pure Chemical Industries), and inoculated onto a 24-well microtiter plate. After the macrophages were cultivated at 37° C. under 5% CO2 for two hours, the culture medium was changed with Dulbecco Modified Eagle Medium (MEM, Nippon Seiyaku). The macrophages were further cultivated at 37° C. under 5% CO2 for 16 hours, and then a test compound and liposomes were added to the culture.
(§2) After cultivation was further continued at 37° C. under 5% CO2 for 16 hours, lipid fraction was extracted with chloroform and methanol. The extracted lipid fraction was dissolved in isopropyl alcohol, and the produced cholesterol ester (CE) was quantified by an enzymatic luminescence method. Yield of the cholesterol ester was calculated as a relative ratio based on yield of the control as 100% where no test compound was added. Cytotoxicity was examined microscopically by observing morphological alteration of cells. In the tables, compound numbers correspond to those of the compounds of present invention described in the examples.

For series [2], the system named is mouse peritoneal macrophages. The series is described as follows: Suppression of foaming of macrophages (cholesterol ester synthesis) in vitro. It is filed as cell-based, mouse (female ICR). Conditions: Mus musculus, Peritoneal macrophage, 5 μM, 16 hours, relative to control as 100%, smaller value = more potent suppression, read-out: Rate of CE synthesis (%). The procedure:
Activity of the compounds of the present invention for suppressing the foaming of macrophages
as §1
1) Test compound: dissolved in DMSO (Wako Pure Chemical Industries),
PC: Phosphatidylcholine (Funakoshi);
PS: Phosphatidylserine (Funakoshi);
DCP: Dicetylphosphate (Funakoshi);
CHOL: Cholesterol (Sigma)
as §2

Structures are written as SMILES. Read-outs that look alike come from different tables or passages of the source.

For the compound `c1ccc(-c2nnc(SCCCCCSc3nc4ccccc4[nH]3)o2)cc1` [Compound B26], in series [1] (Table 4), the Cytotoxicity result is given as “Not observed”. Besides, the activity at 5 µM in series [2] (Table 4) was 12%.
`Clc1ccc2sc(SCCCCCSc3nc4ccccc4[nH]3)nc2c1` [Compound A34, 1-(2'-benzimidazolylthio)-5-(2"-(5"-chlorobenzothiazolyl)thio)pentane]: the Cytotoxicity result in series [1] (Table 3) is given as “Not observed”. In addition, in series [2] (Table 3), the activity at 5 µM is 28%.
On to `c1ccc(SCCCCCCCCCCCc2nc3ccccc3[nH]2)nc1` [Compound B48], for which, in series [1] (Table 4), the Cytotoxicity entry is on record as “Not observed”. Moreover, the activity at 5 µM in series [2] (Table 4) worked out at 41%.
`Cc1ccc2[nH]c(SCCCCCSc3nc4ccccc4s3)nc2c1` [Compound A36]: in series [1] (Table 3), the Cytotoxicity result was “Not observed”. For the same compound, the activity at 5 µM in series [2] (Table 3) worked out at 21%.
On to `c1ccc2[nH]c(SCCCCCSc3nnc(SCCn4ccnc4)s3)nc2c1` [Compound B21], for which the Cytotoxicity entry in series [1] (Table 4) is “Not observed”. Besides, in series [2] (Table 4), the activity at 5 µM was determined as 11%.
The matching figures for `Cn1c(=O)c2nc(SCCCCCSc3nc4ccccc4[nH]3)[nH]c2n(C)c1=O` [Compound B13]: “Not observed” and 26%.
Turning to `CS(=O)(=O)Nc1ccc2[nH]c(SCCCCCSc3nc4ccccc4[nH]3)nc2c1` [Compound A7, 1-(2'-benzimidazolylthio)-5-(2"-(5"-methanesulfonylamino-benzimidazolyl)thio)pentane], the Cytotoxicity result in series [1] (Table 3) is given as “Not observed”. Moreover, in series [2] (Table 3), the activity at 5 µM stood at 22%.
As to `Clc1cc2nc(CCCCCSc3ccccn3)[nH]c2cc1Cl` [Compound B44], the Cytotoxicity result in series [1] (Table 4) is “Not observed”. In series [2] (Table 4), the activity at 5 µM amounted to 51%.
The matching figures for `c1ccc(-n2ccnc2SCCCCCSc2nc3ccccc3[nH]2)cc1` [Compound B3]: “Not observed” and 34%.
Regarding `CNS(=O)(=O)c1ccc2c(c1)nc(SCCCCCSc1nc3ccccc3[nH]1)n2C` [Compound A23, 1-(2'-(1'-methyl-5'-methylsulfamoylbenzimidazolyl)thio)-5-(2"-benzimidazolylthio)pentane], in series [1] (Table 3), the Cytotoxicity entry is listed as “Not observed”. Moreover, the activity at 5 µM in series [2] (Table 3) stood at 34%.
Turning to `Cc1ccc2[nH]c(SCCCCCSc3ccccn3)nc2c1` [Compound B35], the Cytotoxicity entry in series [1] (Table 4) was “Not observed”. Further, the activity at 5 µM in series [2] (Table 4) is 46%.
The corresponding values for `c1ccc(SCCCCCCCCSc2nc3ccccc3[nH]2)nc1` [Compound B32] are “Not observed” and 37%.
Regarding `Cc1cc2nc(CCCCCSc3ccccn3)[nH]c2cc1C` [Compound B45], the Cytotoxicity result in series [1] (Table 4) is reported as “Not observed”. The activity at 5 µM in series [2] (Table 4) is 48%.
The corresponding values for `Cn1c(SCCCCCSc2ccccn2)nc2ccccc21` [Compound B64, 5-(2'-(1'-methylbenzimidazolyl)thio)-1-(2"-pyridylthio)pentane] are “Not observed” and 24%.
Take `c1ccc2[nH]c(SCCCCCSC3=NCCS3)nc2c1` [Compound B15]: in series [1] (Table 4), the Cytotoxicity result is given as “Not observed”. Further, in series [2] (Table 4), the activity at 5 µM was 11%.
The corresponding values for `FC(F)(F)c1ccc2c(SCCCCCSc3nc4ccccc4[nH]3)ccnc2c1` [Compound B63] are “Not observed” and 15%.
Take `c1ccc2[nH]c(SCCCCCSc3nc4ccccc4o3)nc2c1` [Compound A37, 1-(2'-benzimidazolylthio)-5-(2"-benzoxazolylthio)pentane]: the Cytotoxicity result in series [1] (Table 3) is reported as “Not observed”. Further, the activity at 5 µM in series [2] (Table 3) worked out at 13%.
With `CS(=O)(=O)Nc1ccc2[nH]c(SCCCCCSc3ccccn3)nc2c1` [Compound B38], the Cytotoxicity entry in series [1] (Table 4) is recorded as “Not observed”. Also, the activity at 5 µM in series [2] (Table 4) stood at 22%.
As for `FC(F)(F)c1cc2[nH]c(SCCCCCSc3nc4ccccc4[nH]3)nc2cc1Cl` [Compound A16, 1-(2'-(5'-chloro-6'-trifluoromethylbenzimidazolyl)thio)-5-(2"-benzimidazolylthio)pentane], the Cytotoxicity result in series [1] (Table 3) is reported as “Not observed”. The activity at 5 µM in series [2] (Table 3) is 34%.
